Laboratory results published in PMC7094215, “Synthesis and Evaluation of Antileishmanial and Cytotoxic Activity of Benzothiopyrane Derivatives” (Molecules, 2020).

Tests used:
[1] = test system: intracellular amastigotes of L. panamensis (MHOM/CO/87/UA140-EGFP strain); assay: In vitro antileishmanial activity on intracellular amastigotes (GFP, flow cytometry); type: cell-based, Leishmania (V) panamensis; conditions: for SI (Selectivity Index = LC50/EC50): LC50 U-937 / EC50 L. panamensis amastigotes; for EC50: intracellular amastigotes in U-937 cells, 72 h exposure, mean ± SD, Probit
Procedure: Antileishmanial activity of compounds was determined according to the ability of the compound to reduce the infection by L. panamensis parasites. For this, the antileishmanial activity was tested on intracellular amastigotes of L. panamensis transfected with the green fluorescent protein gene (MHOM/CO/87/UA140-EGFP strain). Briefly, U-937 human cells at a density of 3 × 10^5 cells/mL in RPMI 1640 and 0.1 μg/mL of PMA (phorbol-12-myristate-13-acetate) were dispensed on 24-wells microplate and then infected with stationary phase growing L. panamensis promastigotes in 15:1 parasites per cell ratio. Plates were incubated at 34 °C and 5% CO2 for 3 h, and then cells were washed twice with phosphate buffer solution (PBS) to eliminate not internalized parasites. Fresh RPMI-1640 was added into each well (1 mL), and plates were incubated again. After 24 h of infection, the RPMI-1640 medium was replaced by fresh culture medium containing each compound at four serial dilutions (50, 12.5, 3.125 and 0.78 μg/mL) and plates were then incubated at 37 °C and 5% CO2 during 72 h, then, cells were removed from the bottom plate with 100 µL of EDTA/trypsin (250 mg) solution. The cells were centrifuged at 1100 rpm during 10 min at 4 °C, the supernatant was discarded, and cells were washed with 1 mL of cold PBS and centrifuged at 1100 rpm for 10 min at 4 °C. Cells were washed two times employing PBS, as previously, and after the last wash, the supernatant was discarded, and cells were suspended in 500 μL of PBS.
Cells were analyzed by flow cytometry employing a flow cytometer (FC 500MPL, Cytomics, Beckman Coulter. Pasadena, CA, USA) reading at 488 nm (exciting) and 525 nm (emitting) over an argon laser and counting 10,000 events. Infected cells were determined according to the events for green fluorescence (parasites). All determinations for each compound and standard drug were carried out by triplicate, in two experiments. Infected cells exposed to control drug (amphotericin B) were used as the control for antileishmanial activity (positive control), while infected cells incubated in the absence of any compound or drug were used as another control for infection (negative control). Nonspecific fluorescence was corrected by subtracting the fluorescence of unstained cells. Determinations were done by triplicate in at least two independent experiments.
The antileishmanial activity was determined according to the reduction of the percentage of fluorescent parasites determined according to the median fluorescence intensity (MFI) obtained for each experimental condition by cytometry. The parasite values for each concentration of compound were calculated by Equation (3), where the % of parasites in control well, corresponds to 100% of parasites:(3) % Parasites=(MFI exposed parasites/MFI unexposed parasites)×100
Then, the inhibition percentage was calculated with Equation (4):(4) % Inhibitors of Parasites=100−(% Parasites)
Results of antileishmanial activities were expressed as the median effective concentrations (EC50) measured by Probit method.

[2] = Cytotoxic activity, MTT method; type: cell-based; conditions: human, LC50
Procedure: Cytotoxicity of the compounds was evaluated on human monocytes (U-937 ATCC CRL-1593.2) in an exponential growth phase and adjusted at 1 × 10^5 cells/mL in RPMI-1640 enriched with 10% fetal bovine serum (FBS). One hundred microliters of cell suspension were dispensed in each well of a 96-wells microplate, and then 100 μL of 200-50-12.5 and 3.125 μg/mL concentration of each compound or standard drug (amphotericin B) were added dissolved in PBS with 0.5% DMSO. Cell exposed to compounds or standard drugs were incubated 72 h at 37 °C and 5% of CO2. Cytotoxic activity of each compound was determined according to the effect on the cell viability by the MTT microenzymatic method in which 3-(4,5-dimethylthiazol-2-yl)-2,5-diphenyltetrazolium bromide is reduced to a purple formazan product by mitochondrial enzyme succinate dehydrogenase. Thus, 10 μL/well of MTT solution (5 mg/mL) was added to each well of exposed and unexposed cells, and plates were incubated at 37 °C, 5% CO2 during 3 h. The reaction was stopped by adding 100 μL/well of isopropanol with 50% and 10% of SDS (sodium dodecyl sulfate). The concentration of formazan was determined spectrophotometrically at 570 nm (Varioskan, Thermo, Waltham, MA, USA) and intensity of color (absorbance) was registered as O.D. Cells exposed to control drug (amphotericin B) were used as control for toxicity (positive control) while cell incubated in the absence of any compound or drug were used as control for viability (negative control). Non-specific absorbance was corrected by subtracting absorbance (O.D) of the blank. Determinations were done by triplicate in at least two independent experiments.
Cytotoxicity was determined according to viability and mortality percentages obtained for each experimental condition (synthesized compounds, amphotericin B, and culture medium). Results were expressed as the mean lethal concentrations (LC50), the concentration necessary to kill 50% of cells, calculated by the parametric method of linear regression that permits doses-response analysis (Probit analysis).
Initially, viability percentages were calculated by Equation (1), where the O.D of control well, corresponds to 100% of viability:(1) % Viability=(O.D. exposed cells/O.D. unexposed cells)×100
Then, the percentage of cell growth inhibition was calculated using Equation (2):(2) % Inhibition =100−(% Viability)
The toxicity was defined according to LC50 values, using the follow scale: Toxic; LC50 < 100 μM; moderately toxic; LC50 > 100 μM and < 200 μM and potentially nontoxic; LC50 > 200 μM.

[3] = Leishmania panamensis, U-937, 72 h

With `O=C1CC(C(=O)O)Sc2ccccc21` (racemic) [Compound 20a, 4-Oxothiochromane-2-carboxylic acid] the “SI (Selectivity Index = LC50/EC50)” value [1] was 0.3, the EC50 [1, 3] was 414 ± 58.5 µM and the CC50 at 72 h [2] was 133 ± 67.7 µM.

For `O=C1CC(C(=O)O)Sc2ccccc21` (stereo not drawn) [20a (+), 4-oxo-thiochroman-2-carboxylic acid], the “SI (Selectivity Index = LC50/EC50)” value [1] was over 0.1, the EC50 [1] was 505 ± 133 µM and the CC50 at 72 h [2] was over 48.1 µM.

Work on `C[C@@H]1[C@H](O)[C@@H](C)/C=C/C=C/C=C/C=C/C=C/C=C/C=C/[C@H](O[C@@H]2O[C@H](C)[C@@H](O)[C@H](N)[C@@H]2O)C[C@@H]2O[C@](O)(C[C@@H](O)C[C@@H](O)[C@H](O)CC[C@@H](O)C[C@@H](O)CC(=O)O[C@H]1C)C[C@H](O)[C@H]2C(=O)O` [Amphotericin B, reference compound] yielded an EC50 [1, 3] of 0.05 µM and a CC50 at 72 h [2] of 56.8 µM.

For `N#CC1=Cc2ccccc2SC1` [Compound 8a, 2H-Thiochromene-3-carbonitrile], the “SI (Selectivity Index = LC50/EC50)” value [1] was 0.7 and the CC50 at 72 h [2] was 4 ± 0.6 µM.

With `COC(=O)C1=Cc2ccccc2SC1` [Compound 8b, Methyl 2H-thiochromene-3-carboxylate] the “SI (Selectivity Index = LC50/EC50)” value [1] was 2.8, the EC50 [1, 3] was 126 ± 15.5 µM and the “antileishmanial activity (in words)” value ([1]; intracellular amastigotes of L. panamensis) was “practically inactive”. For the same compound, the CC50 at 72 h [2] was 352 ± 47.5 µM.

For `CC(=O)C1=Cc2ccccc2SC1c1ccccc1` (stereo not drawn) [Compound 8c, 1-(2-Phenyl-2H-thiochromen-3-yl)ethan-1-one], the “SI (Selectivity Index = LC50/EC50)” value [1] was under 2.3, the EC50 [1, 3] was over 2.6 µM and the CC50 at 72 h [2] was 6 ± 0.4 µM.

For `CCCCCC1Sc2ccccc2C=C1C(C)=O` (stereo not drawn) [Compound 8d, 1-(2-Pentyl-2H-thiochromen-3-yl)ethan-1-one], the “SI (Selectivity Index = LC50/EC50)” value [1] was 3.1 and the CC50 at 72 h [2] was 25.7 ± 4.6 µM.

For `O=C(C1=Cc2ccccc2SC1c1ccccc1)C(F)(F)F` (stereo not drawn) [Compound 8e], the “SI (Selectivity Index = LC50/EC50)” value [1] was 0.7, the EC50 [1, 3] was 29.6 ± 6.2 µM and the CC50 at 72 h [2] was 21.2 ± 3.4 µM.

For `N#CC1CSc2ccccc2C1=O` (stereo not drawn) [Compound 9a, 4-Oxo-thiochromane-3-carbonitrile], the “SI (Selectivity Index = LC50/EC50)” value [1] was 7.2, the EC50 [1, 3] was 108 ± 34.3 µM and the CC50 at 72 h [2] was 770 ± 49.7 µM.

For `COC(=O)C1CSc2ccccc2C1=O` (stereo not drawn) [Compound 9b + 10b, Methyl 4-oxo-thiochromane-3-carboxylate], the “SI (Selectivity Index = LC50/EC50)” value [1] was 3.6, the EC50 [1, 3] was 134 ± 27 µM and the CC50 at 72 h [2] was 485 ± 45.4 µM.

For `CCCCCC1Sc2ccccc2C(O)=C1C(C)=O` (stereo not drawn) [Compound 10d, 1-(4-Hydroxy-2-pentyl-2H-thiochromen-3-yl)ethan-1-one], the “SI (Selectivity Index = LC50/EC50)” value [1] was 4.1, the EC50 [1, 3] was under 20 µM and the EC50 [1] was 12.5 ± 3.3 µM. The CC50 at 72 h [2] was 51 ± 9 µM.

In the case of `O=CC1=Cc2ccccc2SC1c1ccccc1` (stereo not drawn) [Compound 13a, 2-Phenyl-2H-thiochromene-3-carbaldehyde], the “SI (Selectivity Index = LC50/EC50)” value [1] is reported as under 2.3, the EC50 [1, 3] is reported as over 23.8 µM and the CC50 at 72 h [2] is reported as 54.7 ± 3.2 µM.

With `O=CC1=Cc2ccccc2SC1c1ccc(F)cc1` (stereo not drawn) [Compound 13b, 2-(4-Fluorophenyl)-2H-thiochromene-3-carbaldehyde] the “SI (Selectivity Index = LC50/EC50)” value [1] was 0.3, the EC50 [1, 3] was 29.7 ± 4.4 µM and the CC50 at 72 h [2] was 9.6 ± 0.4 µM.

For `O=CC1=Cc2ccccc2SC1c1ccc(Cl)cc1` (stereo not drawn) [Compound 13c, 2-(4-Chlorophenyl)-2H-thiochromene-3-carbaldehyde], the “SI (Selectivity Index = LC50/EC50)” value [1] was 4.3, the EC50 [1, 3] was 37 ± 5.6 µM and the CC50 at 72 h [2] was 161 ± 27.9 µM.

With `O=CC1=Cc2ccccc2SC1c1ccccc1[N+](=O)[O-]` (stereo not drawn) [Compound 13d, 2-(2-Nitrophenyl)-2H-thiochromene-3-carbaldehyde] the “SI (Selectivity Index = LC50/EC50)” value [1] was 2.6 and the CC50 at 72 h [2] was 23.9 ± 2.4 µM.

Work on `O=C(C1=Cc2ccccc2SC1c1ccccc1)c1ccccc1` (stereo not drawn) [Compound 15a, Phenyl(2-phenyl-2H-thiochromen-3-yl)methanone] yielded an EC50 [1, 3] of 43.9 ± 11.6 µM and a CC50 at 72 h [2] of over 609 µM.

In the case of `O=C(C1=Cc2ccccc2SC1c1ccc(C(F)(F)F)cc1)c1ccc(Cl)cc1` (stereo not drawn) [Compound 15b, (4-Chlorophenyl)(2-(4-(trifluoromethyl)phenyl)-2H-thiochromen-3-yl)methanone], the “SI (Selectivity Index = LC50/EC50)” value [1] is reported as 2.6, the EC50 [1, 3] is reported as 37.9 ± 2.8 µM and the CC50 at 72 h [2] is reported as 97.2 ± 14.2 µM.

With `O=C(C1=Cc2ccccc2SC1c1ccc([N+](=O)[O-])cc1)c1ccc(Cl)cc1` (stereo not drawn) [Compound 15c, (4-Chlorophenyl)(2-(4-nitrophenyl)-2H-thiochromen-3-yl)methanone] the “SI (Selectivity Index = LC50/EC50)” value [1] was 4.0, the EC50 [1, 3] was 38.1 ± 11.3 µM and the CC50 at 72 h [2] was 151 ± 18.1 µM.

In the case of `O=C1CC(C(=O)O)Sc2ccc(F)cc21` (stereo not drawn) [Compound 20b, 6-Fluoro-4-oxo-thiochromane-2-carboxylic acid], the “SI (Selectivity Index = LC50/EC50)” value [1] is reported as 0.1, the EC50 [1, 3] is reported as 3520 ± 3010 µM and the CC50 at 72 h [2] is reported as 210 ± 78.7 µM.

In the case of `COc1ccc2c(c1)C(=O)CC(C(=O)O)S2` (stereo not drawn) [Compound 20c, 6-Methoxy-4-oxo-thiochromane-2-carboxylic acid], the “SI (Selectivity Index = LC50/EC50)” value [1] is reported as 0.2, the EC50 [1, 3] is reported as 494 ± 324 µM and the CC50 at 72 h [2] is reported as 76.3 ± 8.6 µM.

For `COc1ccc2c(c1)SC(C(=O)O)CC2=O` (stereo not drawn) [Compound 20d, 7-Methoxy-4-oxo-thiochromane-2-carboxylic acid], the “SI (Selectivity Index = LC50/EC50)” value [1] was 0.3, the EC50 [1, 3] was 277 ± 101 µM and the CC50 at 72 h [2] was 90.4 ± 16.4 µM.

In the case of `CCOC(=O)C1CC(=O)c2ccccc2S1` (stereo not drawn) [Compound 22a, Ethyl 4-oxo-thiochromane-2-carboxylate], the “SI (Selectivity Index = LC50/EC50)” value [1] is reported as under 3.1, the EC50 [1, 3] is reported as over 68.5 µM and the CC50 at 72 h [2] is reported as 211.1 ± 0.7 µM.

For `CCCCOC(=O)C1CC(=O)c2ccccc2S1` (stereo not drawn) [Compound 22b, Butyl 4-oxo-thiochromane-2-carboxylate], the “SI (Selectivity Index = LC50/EC50)” value [1] was under 1.2, the EC50 [1, 3] was over 189 µM and the CC50 at 72 h [2] was 231 ± 44.5 µM.

With `CCCCCCOC(=O)C1CC(=O)c2ccccc2S1` (stereo not drawn) [Compound 22c, Hexyl 4-oxo-thiochromane-2-carboxylate] the “SI (Selectivity Index = LC50/EC50)” value [1] was under 2.1, the EC50 [1, 3] was over 103 µM and the CC50 at 72 h [2] was 213 ± 47.9 µM.

For `CCCCCCCCCCOC(=O)C1CC(=O)c2ccccc2S1` (stereo not drawn) [Compound 22d, Decyl 4-oxo-thiochromane-2-carboxylate], the “SI (Selectivity Index = LC50/EC50)” value [1] was under 1.0, the EC50 [1, 3] was over 144 µM and the CC50 at 72 h [2] was 140 ± 20.7 µM.

In the case of `CCCCCCNC(=O)C1CC(=O)c2ccccc2S1` (stereo not drawn) [Compound 24a, N-hexyl-4-oxo-thiochromane-2-carboxamide], the “SI (Selectivity Index = LC50/EC50)” value [1] is reported as 0.7, the EC50 [1, 3] is reported as 216 ± 2.5 µM and the CC50 at 72 h [2] is reported as 157 ± 9.7 µM.

With `CCCCCCCCCCCCNC(=O)C1CC(=O)c2ccccc2S1` (stereo not drawn) [Compound 24b, N-dodecyl-4-oxo-thiochromane-2-carboxamide] the “SI (Selectivity Index = LC50/EC50)” value [1] was under 1.8, the EC50 [1, 3] was over 80 µM and the CC50 at 72 h [2] was 148 ± 45.4 µM.
